pEC50: −log10 of the molar value. Records with an inconclusive call do not appear. Activity calls are given as the source filed them.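 The calls were made as follows: active = EC50 no greater than ten times the top concentration tested; inconclusive = flat fit with inhibition between 30% and 70%, or an invalid poor-quality fit; inactive = EC50 beyond ten times the top concentration.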
Tested on: S. cerevisiae GRE-lacZ reporter, Hsp90 function, luminescence
Assay: GRE-lacZ reporter signal reduction in yeast, SAR follow-up, mechanism study for C. albicans Hsp90 inhibitor project, S. cerevisiae, luminescence (AID 434938)

| Structure (SMILES) | EC50 | pEC50 |
| --- | --- | --- |
| Cc1ccc(Nc2nc(N)c([N+](=O)[O-])c(N3CCC(C)CC3)n2)cc1C |  | 5.00 |
| O=C(Nc1nnc(-c2ccc3c(c2)CCCC3)o1)c1ccc(Cl)cc1Cl |  | 5.67 |
| O=C(Nc1nnc(SCc2ccc(Cl)cc2)s1)c1ccc2ccccc2n1 | > 26 µM (inactive) |  |
| COc1ccc(-n2nc(C(=O)NCC(=O)N3CCN(c4ccccc4)CC3)c3ccccc3c2=O)c(OC)c1 | > 26 µM (inactive) |  |
| Cc1oc2c(F)c(F)c(F)c(F)c2c1S(=O)(=O)Nc1cccc(C(F)(F)F)c1 |  | 5.05 |
| COc1ccc(-c2nnc(NC(=O)c3ccc(F)cc3)o2)cc1 | > 26 µM (inactive) |  |
| O=c1c2cc(Br)ccc2nc(-c2cccc(C(F)(F)F)c2)n1O |  | 4.99 |
| Cc1ccc(C(=O)Nc2cccc(-c3cn4ccccc4n3)c2)cc1 | > 26 µM (inactive) |  |
| O=C(Nc1sc2c(c1C(=O)c1ccc(Cl)cc1)CCCC2)c1cccnc1 |  | 4.82 |
| Cc1ccc(C(=O)c2coc3c2C(=O)C(=O)c2ccccc2-3)cc1 |  | 5.12 |
| Clc1ccc2c(c1)C(c1cccs1)=NNC(c1cccnc1)=N2 |  | 4.57 |

Next, values leading:

| EC50 | pEC50 | Structure (SMILES) |
| --- | --- | --- |
| > 26 µM (inactive) |  | O=C(Nc1nnc(CCc2ccccc2)s1)c1ccco1 |
|  | 4.78 | CCOC(=O)c1c(-c2ccccc2Cl)cn2ccccc12 |
|  | 5.32 | O=C(Nc1nc(-c2ccccn2)cs1)c1ccc(Br)s1 |
| > 26 µM (inactive) |  | CCCC(=O)NC(c1ccccc1)c1ccc2cccnc2c1O (centres undefined) |
|  | 5.54 | CCc1ccc2c(c1)/C(=C/C(=O)c1cccs1)C(=O)N2 |
|  | 4.92 | O=C(Oc1c(Cl)cc(Cl)c2cccnc12)c1cccs1 |
| > 26 µM (inactive) |  | CC(C)COCc1ccc(O)c2ncccc12 |
|  | 5.07 | Cc1ccc(/C=C/C(=O)c2ccccc(=O)c2O)cc1C |

Reference: PubChem BioAssay AID434938 (Broad Institute, 2010)
